Our source for the IC50 and Ki values is ChEMBL document CHEMBL1909046, “DrugMatrix in vitro pharmacology data”.

One may read the pIC50 as the negative decadic logarithm of the IC50, by convention in mol/L. What is called pKi is the Ki on a negative log10 scale, so that one unit is a factor of ten.

pIC50, pKi: −log10 of the molar value.

One series concerns the target Melanocortin receptor 4 (Homo sapiens, UniProt P32245). It counts as cell membranes, Membrane. As to conditions: hek293. Further: in other assays of this panel Not Active means under 50% inhibition at 10 µM.
The target in series [1] is Sodium-dependent dopamine transporter (Homo sapiens, UniProt Q01959). The experiment in a line: DRUGMATRIX: Dopamine Transporter radioligand binding (ligand: [125I] RTI-55). It counts as cell membranes, CHO-K1, Membrane. The following applies: Not Active = under 50% inhibition at 10 µM; for IC50: cho-k1.
Sequence of Sodium-dependent dopamine transporter (Q01959 whole entry): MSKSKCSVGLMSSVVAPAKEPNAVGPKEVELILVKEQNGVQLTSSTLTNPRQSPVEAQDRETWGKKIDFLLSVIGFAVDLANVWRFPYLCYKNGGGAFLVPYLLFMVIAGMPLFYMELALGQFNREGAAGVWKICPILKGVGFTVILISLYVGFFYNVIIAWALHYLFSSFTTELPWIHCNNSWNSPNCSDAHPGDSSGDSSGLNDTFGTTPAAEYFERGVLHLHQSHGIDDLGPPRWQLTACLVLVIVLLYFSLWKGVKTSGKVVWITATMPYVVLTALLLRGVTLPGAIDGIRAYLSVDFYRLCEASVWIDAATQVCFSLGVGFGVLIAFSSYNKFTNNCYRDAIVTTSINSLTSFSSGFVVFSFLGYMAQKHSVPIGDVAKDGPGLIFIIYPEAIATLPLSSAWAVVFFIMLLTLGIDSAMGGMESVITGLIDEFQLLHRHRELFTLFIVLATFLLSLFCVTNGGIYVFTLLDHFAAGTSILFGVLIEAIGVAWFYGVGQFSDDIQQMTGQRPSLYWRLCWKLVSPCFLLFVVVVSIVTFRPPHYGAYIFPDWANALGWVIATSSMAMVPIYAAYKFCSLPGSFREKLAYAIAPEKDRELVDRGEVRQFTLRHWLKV
Series [2] deals with T1, 3-hydroxy-3-methylglutaryl-coenzyme A reductase (Homo sapiens, UniProt P04035).
T1 sequence (P04035 whole entry): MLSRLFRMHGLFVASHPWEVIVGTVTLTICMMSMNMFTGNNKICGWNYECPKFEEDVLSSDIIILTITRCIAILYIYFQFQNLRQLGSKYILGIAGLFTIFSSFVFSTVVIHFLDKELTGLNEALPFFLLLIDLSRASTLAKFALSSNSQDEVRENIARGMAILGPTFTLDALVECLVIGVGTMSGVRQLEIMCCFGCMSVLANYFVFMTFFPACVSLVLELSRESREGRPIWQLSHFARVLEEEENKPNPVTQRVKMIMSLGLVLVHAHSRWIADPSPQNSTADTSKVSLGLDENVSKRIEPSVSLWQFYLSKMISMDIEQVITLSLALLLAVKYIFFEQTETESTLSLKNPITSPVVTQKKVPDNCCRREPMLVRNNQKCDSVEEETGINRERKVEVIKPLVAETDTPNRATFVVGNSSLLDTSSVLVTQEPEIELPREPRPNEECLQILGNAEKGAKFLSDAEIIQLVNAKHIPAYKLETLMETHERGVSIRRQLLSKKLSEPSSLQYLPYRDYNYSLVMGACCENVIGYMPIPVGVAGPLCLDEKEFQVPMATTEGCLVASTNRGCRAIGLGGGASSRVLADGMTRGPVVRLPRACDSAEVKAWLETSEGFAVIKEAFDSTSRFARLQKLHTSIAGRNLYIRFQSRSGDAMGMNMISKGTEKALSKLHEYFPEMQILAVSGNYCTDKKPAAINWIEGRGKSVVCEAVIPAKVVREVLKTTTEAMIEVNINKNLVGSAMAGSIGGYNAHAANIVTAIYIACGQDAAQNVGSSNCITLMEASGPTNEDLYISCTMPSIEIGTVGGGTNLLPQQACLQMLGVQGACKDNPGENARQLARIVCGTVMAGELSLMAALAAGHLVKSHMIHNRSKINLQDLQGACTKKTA
Also on record: species or system Escherichia coli.

Series [3] in a line: DRUGMATRIX: Sigma2 radioligand binding (ligand: [3H] Ifenprodil). As to conditions: Not Active = under 50% inhibition at 10 µM. The format is cell membranes, Rattus norvegicus, Wistar, Brain, Membrane.
The next series has as its target T2, Endothelin-1 receptor (Homo sapiens, UniProt P25101). Further: in other assays of this panel Not Active means under 50% inhibition at 10 µM.
T2 sequence (P25101 whole entry): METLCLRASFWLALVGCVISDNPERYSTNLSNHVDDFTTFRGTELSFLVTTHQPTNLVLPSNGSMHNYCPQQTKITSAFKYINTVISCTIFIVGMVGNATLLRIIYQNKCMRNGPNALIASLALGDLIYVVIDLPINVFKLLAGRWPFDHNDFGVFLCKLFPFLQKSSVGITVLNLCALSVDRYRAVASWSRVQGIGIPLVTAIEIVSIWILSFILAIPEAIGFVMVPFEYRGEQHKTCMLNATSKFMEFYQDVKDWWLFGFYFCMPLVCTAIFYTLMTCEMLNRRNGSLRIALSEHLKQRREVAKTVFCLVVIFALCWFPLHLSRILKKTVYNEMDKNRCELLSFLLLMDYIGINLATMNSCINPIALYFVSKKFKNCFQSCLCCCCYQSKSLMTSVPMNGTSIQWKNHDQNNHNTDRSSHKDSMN
It counts as cell membranes, Membrane. As to conditions: cho-k1.

In series [4] the target is Protein phosphatase 3 catalytic subunit alpha (Homo sapiens, UniProt Q08209). Details: species or system Escherichia coli.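 Further: inhibition of calcineurin (PP2B) enzyme activity, measured with DiFMUP as the substrate; in other assays of this panel Not Active means under 50% inhibition at 10 µM.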
For a further series, the target named is Cytochrome P450 2D6 (Homo sapiens, UniProt P10635). The following applies: bti-tn-5b1-4. Further: in other assays of this panel Not Active means under 50% inhibition at 10 µM.
Sequence of Cytochrome P450 2D6 (P10635 whole entry): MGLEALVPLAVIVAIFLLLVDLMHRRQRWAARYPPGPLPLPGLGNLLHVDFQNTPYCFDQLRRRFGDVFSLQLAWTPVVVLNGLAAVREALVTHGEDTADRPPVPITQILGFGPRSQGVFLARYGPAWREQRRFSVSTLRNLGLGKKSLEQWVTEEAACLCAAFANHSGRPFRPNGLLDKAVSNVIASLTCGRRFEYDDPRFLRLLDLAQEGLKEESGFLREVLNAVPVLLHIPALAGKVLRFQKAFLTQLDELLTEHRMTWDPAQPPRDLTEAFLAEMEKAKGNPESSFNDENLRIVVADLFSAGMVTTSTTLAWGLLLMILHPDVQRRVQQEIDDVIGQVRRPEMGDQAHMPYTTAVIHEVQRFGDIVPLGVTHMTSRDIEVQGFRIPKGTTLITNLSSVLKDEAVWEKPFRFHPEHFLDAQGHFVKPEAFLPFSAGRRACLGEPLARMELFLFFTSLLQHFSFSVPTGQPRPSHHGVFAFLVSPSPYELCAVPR
In series [5] the target is Epidermal growth factor receptor (Homo sapiens, UniProt P00533). The experiment in a line: DRUGMATRIX: Protein Tyrosine Kinase, EGF Receptor enzyme inhibition (substrate: Poly(Glu:Tyr)). The format is cell-based, Insect cells. The following applies: insect cells; Not Active = under 50% inhibition at 10 µM.
Sequence of Epidermal growth factor receptor (P00533 whole entry): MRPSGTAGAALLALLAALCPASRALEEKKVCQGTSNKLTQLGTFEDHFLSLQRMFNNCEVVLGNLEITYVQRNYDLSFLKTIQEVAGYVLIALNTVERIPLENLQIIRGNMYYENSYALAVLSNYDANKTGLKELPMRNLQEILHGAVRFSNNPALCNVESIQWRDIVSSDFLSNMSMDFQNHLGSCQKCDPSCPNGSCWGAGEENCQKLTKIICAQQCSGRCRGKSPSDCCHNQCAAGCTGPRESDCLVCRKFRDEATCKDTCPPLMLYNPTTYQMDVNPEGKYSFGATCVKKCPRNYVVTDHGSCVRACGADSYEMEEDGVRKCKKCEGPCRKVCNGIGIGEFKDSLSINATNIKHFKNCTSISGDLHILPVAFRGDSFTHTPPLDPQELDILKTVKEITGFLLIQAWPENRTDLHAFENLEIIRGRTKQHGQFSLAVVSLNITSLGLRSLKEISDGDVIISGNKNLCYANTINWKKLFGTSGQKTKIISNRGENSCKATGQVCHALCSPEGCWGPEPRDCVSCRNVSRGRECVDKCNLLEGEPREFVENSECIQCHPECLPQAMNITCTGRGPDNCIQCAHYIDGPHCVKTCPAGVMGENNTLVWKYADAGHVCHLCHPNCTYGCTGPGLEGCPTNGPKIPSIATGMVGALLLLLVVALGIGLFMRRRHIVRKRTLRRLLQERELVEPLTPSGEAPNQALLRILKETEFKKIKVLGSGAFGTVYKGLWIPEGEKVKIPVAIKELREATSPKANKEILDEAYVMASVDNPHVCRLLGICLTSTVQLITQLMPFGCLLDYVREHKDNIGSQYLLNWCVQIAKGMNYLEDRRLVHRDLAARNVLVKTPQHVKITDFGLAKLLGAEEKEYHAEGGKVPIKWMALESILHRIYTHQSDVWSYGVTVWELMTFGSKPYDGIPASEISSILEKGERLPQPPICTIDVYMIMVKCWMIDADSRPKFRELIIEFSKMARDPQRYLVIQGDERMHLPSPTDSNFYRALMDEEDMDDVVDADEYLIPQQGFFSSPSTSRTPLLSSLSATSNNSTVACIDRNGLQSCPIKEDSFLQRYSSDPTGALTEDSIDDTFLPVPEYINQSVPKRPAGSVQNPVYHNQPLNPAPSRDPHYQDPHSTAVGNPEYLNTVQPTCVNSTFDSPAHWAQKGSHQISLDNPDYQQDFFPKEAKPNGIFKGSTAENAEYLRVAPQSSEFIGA
For series [6], the target named is T3, C-C chemokine receptor type 4 (Homo sapiens, UniProt P51679). Further: in other assays of this panel Not Active means under 50% inhibition at 10 µM.
T3 sequence (P51679 whole entry): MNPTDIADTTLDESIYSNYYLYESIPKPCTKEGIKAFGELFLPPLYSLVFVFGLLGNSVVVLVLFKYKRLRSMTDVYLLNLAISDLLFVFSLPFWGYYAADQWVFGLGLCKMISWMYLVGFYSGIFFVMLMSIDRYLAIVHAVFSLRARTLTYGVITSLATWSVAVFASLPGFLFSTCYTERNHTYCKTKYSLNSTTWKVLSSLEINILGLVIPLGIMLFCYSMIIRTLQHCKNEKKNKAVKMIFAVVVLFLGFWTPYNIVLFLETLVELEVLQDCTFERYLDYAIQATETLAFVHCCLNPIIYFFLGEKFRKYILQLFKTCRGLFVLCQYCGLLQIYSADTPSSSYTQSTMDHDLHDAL
The format is cell membranes, Membrane. The following applies: chem-1.

Series [7] in a line: DRUGMATRIX: GABAA, Flunitrazepam, Central radioligand binding (ligand: [3H] Flunitrazepam). It counts as cell membranes, Rattus norvegicus, Wistar, Brain, Membrane. The following applies: Not Active = under 50% inhibition at 10 µM.

Sequence of Melanocortin receptor 4 (P32245 whole entry): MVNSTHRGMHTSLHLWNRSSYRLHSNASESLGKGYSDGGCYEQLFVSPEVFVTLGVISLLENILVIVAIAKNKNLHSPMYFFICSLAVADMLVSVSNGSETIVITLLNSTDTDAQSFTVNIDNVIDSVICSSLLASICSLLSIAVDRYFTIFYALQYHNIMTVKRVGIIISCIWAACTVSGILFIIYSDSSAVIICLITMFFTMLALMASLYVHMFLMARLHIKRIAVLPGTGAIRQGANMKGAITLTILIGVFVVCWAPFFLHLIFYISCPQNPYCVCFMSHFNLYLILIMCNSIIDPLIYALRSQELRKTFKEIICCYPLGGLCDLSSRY

For the compound `CC(=O)N[C@@H]1[C@H](Oc2c3cc4cc2Oc2ccc(cc2Cl)[C@@H](O[C@@H]2O[C@@H](CO)[C@@H](O)[C@H](O)[C@@H]2NC(C)=O)[C@@H]2NC(=O)[C@H](NC(=O)[C@@H]4NC(=O)[C@H]4NC(=O)[C@@H](Cc5ccc(c(Cl)c5)O3)NC(=O)[C@H](N)c3ccc(O)c(c3)Oc3cc(O)cc4c3)c3ccc(O)c(c3)-c3c(O[C@H]4O[C@H](CO)[C@@H](O)[C@@H](O)[C@@H]4O)cc(O)cc3[C@@H](C(=O)O)NC2=O)O[C@@H](CO)[C@@H](O)[C@@H]1O`, the IC50 entry (at Melanocortin receptor 4; in [1]; in series [2]; in series [3]; on Endothelin-1 receptor; in series [4]) was “Not Active” throughout. Besides, the IC50 entry (against Cytochrome P450 2D6; in series [5]; in series [6]; in series [7]) was “Not Active” each time. The Ki result (in series [3]; at Cytochrome P450 2D6; in series [7]) was “Not Active” in each case.

As to `COCCCOc1ccnc(C[S+]([O-])c2nc3ccccc3[nH]2)c1C` (stereo unspecified) [RABEPRAZOLE], the IC50 result (against Melanocortin receptor 4; in [1]; in series [2]; in series [3]; on Endothelin-1 receptor; in [4]) was “Not Active” each time. Further, the IC50 entry (on Cytochrome P450 2D6; in series [5]; in series [6]; in series [7]) was “Not Active” in each case. Besides, the Ki result (in series [3]; on Cytochrome P450 2D6; in series [7]) was “Not Active” each time.

Take `CNC(=C[N+](=O)[O-])NCCSCc1ccc(CN(C)C)o1` [RANITIDINE]: the IC50 entry (against Melanocortin receptor 4; in series [1]; in [2]; in series [3]; against Endothelin-1 receptor; in [4]) was “Not Active” each time. The IC50 result (on Cytochrome P450 2D6; in [5]; in series [6]; in series [7]) was “Not Active” each time. Moreover, the Ki result (in series [3]; on Cytochrome P450 2D6; in series [7]) was “Not Active” in each case.

`CO[C@H]1/C=C/O[C@@]2(C)Oc3c(C)c(O)c4c(c3C2=O)C2=NC3(CCN(CC(C)C)CC3)NC2=C(NC(=O)/C(C)=C\C=C\[C@H](C)[C@H](O)[C@@H](C)[C@@H](O)[C@@H](C)[C@H](OC(C)=O)[C@@H]1C)C4=O` [RIFABUTIN]: the IC50 entry (at Melanocortin receptor 4; in series [1]; in series [2]; in [3]; against Endothelin-1 receptor; in series [4]) was “Not Active” each time. Also, the IC50 entry (on Cytochrome P450 2D6; in [5]; in [6]; in series [7]) was “Not Active” throughout. Besides, the Ki entry (in series [3]; on Cytochrome P450 2D6; in series [7]) was “Not Active” in each case.

For the compound `CC(C)CC(N(C)C)C1(c2ccc(Cl)cc2)CCC1` (stereo unspecified) [SIBUTRAMINE], the IC50 entry (against Melanocortin receptor 4; in series [2]; in [3]; against Endothelin-1 receptor; in series [4]; on Cytochrome P450 2D6) was “Not Active” in each case. Moreover, the IC50 entry in series [5], in series [6] and in [7] was “Not Active” throughout. Besides, the pIC50 in series [1] (read-out: IC50) was 6.20. Moreover, in series [1] (read-out: Ki), the pKi is 6.30. In addition, the Ki entry (in [3]; at Cytochrome P450 2D6; in series [7]) was “Not Active” throughout.

`[H]/N=C(/N)N[C@H]1[C@H](O)[C@@H](O)[C@H](O[C@@H]2O[C@@H](C)[C@](O)(C=O)[C@H]2O[C@@H]2O[C@@H](CO)[C@H](O)[C@@H](O)[C@@H]2NC)[C@@H](N/C(N)=N\[H])[C@@H]1O` [STREPTOMYCIN]: the IC50 entry (on Melanocortin receptor 4; in series [1]; in series [2]; in [3]; against Endothelin-1 receptor; in [4]) was “Not Active” throughout. Besides, the IC50 result (at Cytochrome P450 2D6; in [5]; in series [6]; in series [7]) was “Not Active” each time. Also, the Ki entry (in series [3]; at Cytochrome P450 2D6; in series [7]) was “Not Active” in each case.

Consider `COc1cc(NS(=O)(=O)c2ccc(N)cc2)nc(OC)n1` [SULFADIMETHOXINE], for which the IC50 entry (on Melanocortin receptor 4; in series [1]; in series [2]; in [3]; against Endothelin-1 receptor; in series [4]) was “Not Active” each time. Moreover, the IC50 entry (on Cytochrome P450 2D6; in [5]; in series [6]; in series [7]) was “Not Active” throughout. For the same compound, the Ki entry (in series [3]; at Cytochrome P450 2D6; in series [7]) was “Not Active” throughout.

`Cc1cc(C)nc(NS(=O)(=O)c2ccc(N)cc2)n1` [SULFAMETHAZINE]: the IC50 result (at Melanocortin receptor 4; in series [1]; in series [2]; in series [3]; at Endothelin-1 receptor; in series [4]) was “Not Active” throughout. Also, the IC50 result (at Cytochrome P450 2D6; in series [5]; in series [6]; in series [7]) was “Not Active” each time. For the same compound, the Ki result (in [3]; at Cytochrome P450 2D6; in series [7]) was “Not Active” in each case.

Regarding `C[C@]1(Cn2ccnn2)[C@H](C(=O)O)N2C(=O)C[C@H]2S1(=O)=O` [TAZOBACTAM], the IC50 entry (at Melanocortin receptor 4; in series [1]; in [2]; in series [3]; at Endothelin-1 receptor; in [4]) was “Not Active” in each case. Moreover, the IC50 entry (at Cytochrome P450 2D6; in series [5]; in series [6]; in series [7]) was “Not Active” in each case. Also, the Ki entry (in series [3]; on Cytochrome P450 2D6; in series [7]) was “Not Active” in each case.

Consider `CN1C(C(=O)Nc2ccccn2)=C(O)c2sccc2S1(=O)=O` [TENOXICAM], for which the IC50 entry (against Melanocortin receptor 4; in series [1]; in [2]; in series [3]; against Endothelin-1 receptor; in [4]) was “Not Active” each time. Also, the IC50 entry (at Cytochrome P450 2D6; in series [5]; in series [6]; in series [7]) was “Not Active” in each case. For the same compound, the Ki result (in series [3]; at Cytochrome P450 2D6; in series [7]) was “Not Active” each time.
